According to patent US20170065564A1, “BIS-CYCLIC GUANIDINE COMPOUND COMPOSITIONS, METHODS OF USE AND TREATMENT THEREOF” (University of South Florida, priority 2014, published 2017):
Values after ≈ are worked out from the molar mass of the structure shown. Where two headings read alike, the source gives them in different places.

Experiments:
[1] = test system: Acinetobacter baumannii; assay: MIC micro broth dilution assay; assay type: cell-based; set-up: key to stacked score activity, 100/MIC, A: stacked score = 100/MIC; conditions: for stacked score activity, 100/MIC, A: A. baumannii
Procedure, shortened: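 Strains were multidrug-resistant clinical isolates grown in LB (Gram-negative) or TSB (Gram-positive), diluted 1:1,000 before compound addition.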

[2] = test system: Acinetobacter baumannii; assay: Minimal bactericidal concentration (MBC) assay; assay type: cell-based; conditions: purified compound, read-out: MBC90
Protocol: (§1) Briefly, compound was washed by centrifugation and serial dilution, before plating on Tryptic Soy Agar (TSA). Plates were incubated for 24 hours at 37° C. and cell viability assessed by determining CFU/ml at each concentration, for every compound. Percent recovery was then determined compared to CFU/ml from no drug controls. All concentrations and controls were tested using three biological replicates, alongside two technical replicates for each data point.

[3] = test system: Enterobacter cloacae; assay: Minimal bactericidal concentration (MBC) assay; assay type: cell-based; conditions: purified compound, read-out: MBC90
Protocol: as §1

[4] = test system: Enterococcus faecium; assay: Minimal bactericidal concentration (MBC) assay; assay type: cell-based; conditions: purified compound, read-out: MBC90
Protocol: as §1

[5] = test system: Klebsiella pneumoniae; assay: Minimal bactericidal concentration (MBC) assay; assay type: cell-based; conditions: purified compound, read-out: MBC90
Protocol: as §1

[6] = test system: Pseudomonas aeruginosa; assay: Minimal bactericidal concentration (MBC) assay; assay type: cell-based; conditions: purified compound, read-out: MBC90
Protocol: as §1

[7] = test system: Staphylococcus aureus; assay: Minimal bactericidal concentration (MBC) assay; assay type: cell-based; conditions: purified compound, read-out: MBC90
Protocol: as §1

[8] = test system: Acinetobacter baumannii biofilm; assay: Minimum biofilm eradication concentration (MBEC) assay; assay type: cell-based; conditions: 24 h biofilm, purified compound
Protocol: (§2) The minimum biofilm eradication concentration (MBEC) was determined in 96-well microtiter plates as follows. Broth cultures of ESKAPE strains were grown using the conditions described above. Biofilms for each of the ESKAPE pathogens were generated from these as we have previously described for S. aureus, however human serum was not used for non-staphylococcal organisms.^44 46 For all organisms, biofilms were developed by standardizing an overnight culture into fresh media to an OD600 of 0.5 and adding 150 μl into each well of a 96-well microtiter plate. […] These cultures were incubated at 37° C. overnight alongside no drug controls. After 24 hours, the media was removed from wells and the biofilm resuspended in phosphate buffered saline (PBS). Cultures were mixed by vigorous pipetting, before being serially diluted in PBS, and plated in duplicate on relevant agar. Plates were incubated at 37° C. for 24 hours, and CFUs determined by enumeration. Each analysis was performed using three technical replicates, and antibiofilm activity was determined by comparing treated to untreated samples.

[9] = test system: Enterobacter cloacae biofilm; assay: as above; assay type: cell-based; conditions: 24 h biofilm, purified compound
Protocol: as §2

[10] = test system: Enterococcus faecium biofilm; assay: as above; assay type: cell-based; conditions: 24 h biofilm, purified compound
Protocol: as §2

[11] = test system: Klebsiella pneumoniae biofilm; assay: as above; assay type: cell-based; conditions: 24 h biofilm, purified compound
Protocol: as §2

[12] = test system: Pseudomonas aeruginosa biofilm; assay: as above; assay type: cell-based; conditions: 24 h biofilm, purified compound
Protocol: as §2

[13] = test system: Staphylococcus aureus biofilm; assay: as above; assay type: cell-based; conditions: 24 h biofilm, purified compound
Protocol: as §2

[14] = test system: S. aureus; assay: Resistance serial passage assay; assay type: cell-based, Staphylococcus aureus; conditions: 8 passages, concentration doubled each day
Protocol: ESKAPE pathogens were grown overnight in liquid media at 37° C. These cultures were then diluted 1:100 in fresh media, and seeded into a 96-well plate. Lead bis-cyclic guanidines or control agents were added to respective wells at half MIC concentrations. Plates were then incubated for 24 hours at 37° C., with bacteria removed from these cultures on the following day, to inoculate fresh media (1:100 dilution) containing compounds at a 2-fold higher concentrations. These were then grown overnight, and the procedure repeated for a total of eight days. […] Each experiment was performed in triplicate, yielding identical results.

[15] = test system: Staphylococcus aureus (USA300 strain FPR3757); assay: Murine model of lethal peritonitis; assay type: in vivo, mice; conditions: 2× MIC, I.M., 1 h post-infection, six mice per group
Protocol: Using MRSA as a representative ESKAPE organism, we infected mice with 1×10^8 bacterial cells in 5% mucin via intraperitoneal injection. At 1 h post-infection, mice were then I.V. injected with either vancomycin (positive control), or I.M. with our front runner compounds.
Six mice per group were injected with 1×10^8 CFU ml^−1 of Staphylococcus aureus (USA300 strain FPR3757) in PBS containing 5% mucin. […] Mice were monitored twice daily for five days to assess mortality. The clinical endpoint of this study was when the mice reached a pre-moribund state. Characteristics of pre-moribund state include: hunched posture, rapid, shallow and/or labored breathing, ruffled fur, lethargy, failure to respond to stimuli, soiled anogenital area, paralysis, paresis, head tilt, circling, vocalizations, non-purposeful movements and/or were unable to eat or drink. Those mice reaching this state prior to the completion of the 5 day infection period were euthanized. The number of mice surviving between control and treatment groups was compared and analyzed for statistical significance using a log rank test.

[16] = Acinetobacter baumannii, A. baumannii isolate 1403
[17] = Acinetobacter baumannii, A. baumannii isolate 1643
[18] = Acinetobacter baumannii, A. baumannii isolate 1644
[19] = Acinetobacter baumannii, A. baumannii isolate 1647
[20] = Acinetobacter baumannii, A. baumannii isolate 1648
[21] = Acinetobacter baumannii, A. baumannii isolate 1649
[22] = Acinetobacter baumannii, A. baumannii isolate 1650
[23] = Acinetobacter baumannii, A. baumannii isolate 1651
[24] = Acinetobacter baumannii, A. baumannii isolate 1653
[25] = Acinetobacter baumannii, A. baumannii isolate 1654
[26] = Acinetobacter baumannii, purified compound, Table 1

Structure (SMILES) | stacked score activity, 100/MIC, A [1] | MIC [1, 16] [µM] | MIC [1, 17] [µM] | MIC [1, 18] [µM] | MIC [1, 19] [µM] | MIC [1, 20] [µM] | MIC [1, 21] [µM] | MIC [1, 22] [µM] | MIC [1, 23] [µM] | MIC [1, 24] [µM] | MIC [1, 25] [µM] | MIC [1, 26] [µM] | MBC ([2]; Acinetobacter baumannii) [µM] | MBC ([3]; Enterobacter cloacae) [µM] | MBC ([4]; Enterococcus faecium) [µM] | MBC ([5]; Klebsiella pneumoniae) [µM] | MBEC50 [8] [µM] | MBEC50 [9] [µM] | increase in MIC after serial passage [14] | survival of infected mice over 5 day infection period [15] | also measured
CCCCCCCN1C(=N)N(CCCC[C@H]2CNC(=N)N2CCc2cccc(C(F)(F)F)c2)C[C@@H]1CCCC [Compound 1] | 20 | 2 (≈ 1.1 µg/mL) | 2 (≈ 1.1 µg/mL) | 2 (≈ 1.1 µg/mL) | 2 (≈ 1.1 µg/mL) | 2 (≈ 1.1 µg/mL) | 2 (≈ 1.1 µg/mL) | 2 (≈ 1.1 µg/mL) | 2 (≈ 1.1 µg/mL) | 2 (≈ 1.1 µg/mL) | 2 (≈ 1.1 µg/mL) | 1.63 (≈ 0.898 µg/mL) | 3.05 (≈ 1.68 µg/mL) | 3.14 (≈ 1.73 µg/mL) | 1.87 (≈ 1.03 µg/mL) | 2.36 (≈ 1.3 µg/mL) | 14.82 | 13.02 | two-fold | all mice survived | MBC ([6]; Pseudomonas aeruginosa): 4.01 µM (≈ 2.21 µg/mL); MBC ([7]; Staphylococcus aureus): 3.09 µM (≈ 1.7 µg/mL); MBEC50 [10]: 38.84 µM; MBEC50 [11]: 6.97 µM; MBEC50 [12]: 19.68 µM; MBEC50 [13]: 13.87 µM
CCCC[C@H]1CN(CCCC[C@H]2CNC(=N)N2CCc2cccc(C(F)(F)F)c2)C(=N)N1CCCCC1CCCCC1 [Compound 2, (S)-4-butyl-3-(4-cyclohexylbutyl)-1-(4-((S)-2-imino-3-(3-(trifluoromethyl)phenethyl)imidazolidin-4-yl)butyl)imidazolidin-2-imine] | 25 | 2 (≈ 1.18 µg/mL) | 2 (≈ 1.18 µg/mL) | 2 (≈ 1.18 µg/mL) | 2 (≈ 1.18 µg/mL) | 2 (≈ 1.18 µg/mL) | 2 (≈ 1.18 µg/mL) | 2 (≈ 1.18 µg/mL) | 2 (≈ 1.18 µg/mL) | 2 (≈ 1.18 µg/mL) | 2 (≈ 1.18 µg/mL) | 1.52 (≈ 0.898 µg/mL) | 2.83 (≈ 1.67 µg/mL) | 4.15 (≈ 2.45 µg/mL) | 1.66 (≈ 0.981 µg/mL) | 3.98 (≈ 2.35 µg/mL) | 15.84 | 13.44 | two-fold | only a single mouse succumbing to infection after the first day | MBC ([6]; Pseudomonas aeruginosa): 2.32 µM (≈ 1.37 µg/mL); MBC ([7]; Staphylococcus aureus): 2.03 µM (≈ 1.2 µg/mL); MBEC50 [10]: 29.20 µM; MBEC50 [11]: 4.65 µM; MBEC50 [12]: 30.62 µM; MBEC50 [13]: 2.18 µM
CCCCCCCN1C(=N)N(CCCC[C@H]2CNC(=N)N2CCC23CC4CC(CC(C4)C2)C3)C[C@@H]1CCCC [Compound 19] | 25 |  |  |  |  |  |  |  |  |  |  |  |  |  |  |  | 24.07 | 15.14 | 16 fold | only a single mouse succumbing to infection after the first day | MIC ([1]; A. baumannii isolate 1403): 2.0 µM (≈ 1.08 µg/mL); MIC ([1]; A. baumannii isolate 1643): 2.0 µM (≈ 1.08 µg/mL); MIC ([1]; A. baumannii isolate 1644): 2.0 µM (≈ 1.08 µg/mL); MIC ([1]; A. baumannii isolate 1647): 2.0 µM (≈ 1.08 µg/mL); MIC ([1]; A. baumannii isolate 1648): 2.0 µM (≈ 1.08 µg/mL); MIC ([1]; A. baumannii isolate 1649): 2.0 µM (≈ 1.08 µg/mL); MIC ([1]; A. baumannii isolate 1650): 2.0 µM (≈ 1.08 µg/mL); MIC ([1]; A. baumannii isolate 1651): 2.0 µM (≈ 1.08 µg/mL); MIC ([1]; A. baumannii isolate 1653): 2.0 µM (≈ 1.08 µg/mL); MIC ([1]; A. baumannii isolate 1654): 2.0 µM (≈ 1.08 µg/mL); MIC ([1]; purified compound, Table 1): 1.66 µM (≈ 0.898 µg/mL); MBC [2]: 4.66 µM (≈ 2.52 µg/mL); MBC [3]: 2.70 µM (≈ 1.46 µg/mL); MBC [4]: 3.59 µM (≈ 1.94 µg/mL); MBC [5]: 2.61 µM (≈ 1.41 µg/mL); MBC [6]: 2.77 µM (≈ 1.5 µg/mL); MBC [7]: 2.88 µM (≈ 1.56 µg/mL); MBEC50 [10]: 13.27 µM
CCCCCCCN1C(=N)N(CCCC[C@H]2CNC(=N)N2CCCCC2CCCCC2)C[C@@H]1CC1CCCCC1 [Compound 16] | 33 | 2 (≈ 1.11 µg/mL) | 2 (≈ 1.11 µg/mL) | 2 (≈ 1.11 µg/mL) | 2 (≈ 1.11 µg/mL) | 2 (≈ 1.11 µg/mL) | 2 (≈ 1.11 µg/mL) | 2 (≈ 1.11 µg/mL) | 2 (≈ 1.11 µg/mL) | 2 (≈ 1.11 µg/mL) | 2 (≈ 1.11 µg/mL) | 1.62 (≈ 0.902 µg/mL) | 2.77 (≈ 1.54 µg/mL) | 9.55 (≈ 5.32 µg/mL) | 2.87 (≈ 1.6 µg/mL) | 4.45 (≈ 2.48 µg/mL) | 14.13 | 12.68 | 16 fold | only a single mouse succumbing to infection after the first day | MBC ([6]; Pseudomonas aeruginosa): 3.99 µM (≈ 2.22 µg/mL); MBC ([7]; Staphylococcus aureus): 3.88 µM (≈ 2.16 µg/mL); MBEC50 [11]: 6.28 µM; MBEC50 [13]: 7.58 µM
CCCCCCCN1C(=N)N(CCCC[C@H]2CNC(=N)N2CCc2cccc(C(F)(F)F)c2)C[C@@H]1CC1CCCCC1 [Compound 7] | 25 | 2 (≈ 1.18 µg/mL) | 2 (≈ 1.18 µg/mL) | 2 (≈ 1.18 µg/mL) | 2 (≈ 1.18 µg/mL) | 2 (≈ 1.18 µg/mL) | 2 (≈ 1.18 µg/mL) | 2 (≈ 1.18 µg/mL) | 2 (≈ 1.18 µg/mL) | 2 (≈ 1.18 µg/mL) | 2 (≈ 1.18 µg/mL) | 1.52 (≈ 0.898 µg/mL) | 2.16 to 3.28 (≈ 1.28 to 1.94 µg/mL) | 6.36 (≈ 3.76 µg/mL) | 2.16 to 3.28 (≈ 1.28 to 1.94 µg/mL) | 2.16 to 3.28 (≈ 1.28 to 1.94 µg/mL) | 13.10 | 14.54 | four-fold | 1 mouse lost on each of days 2 and 4 | MBC [2]: 3.23 µM (≈ 1.91 µg/mL); MBC [4]: 3.27 µM (≈ 1.93 µg/mL); MBC [5]: 2.16 µM (≈ 1.28 µg/mL); MBC ([6]; Pseudomonas aeruginosa): 13.7 µM (≈ 8.12 µg/mL); MBC ([7]; Staphylococcus aureus): 2.16 to 3.28 µM (≈ 1.28 to 1.94 µg/mL); MBC [7]: 3.28 µM (≈ 1.94 µg/mL); MBEC50 [10]: 26.30 µM; MBEC50 [11]: 4.81 µM; MBEC50 [12]: 45.56 µM; MBEC50 [13]: 4.35 µM
